± gives the uncertainty stated by the source.
Assay: xn = mol fraction of the nth substance listed

CCCC[n+]1ccccc1.[Br-] + CC[n+]1ccccc1.[Br-]
viscosity [mPa·s], 101 kPa
Settings	x2 = 0.085	x2 = 0.197	x2 = 0.269	x2 = 0.352	x2 = 0.52	x2 = 0.621	x2 = 0.689	x2 = 0.811	x2 = 0.903
353.1 K	–	–	–	–	93.7 ± 6.9	–	–	–	–
358.1 K	–	–	–	–	77.4 ± 7.2	–	–	–	–
363.1 K	–	–	–	86.2 ± 6.7	64.2 ± 4.9	53.8 ± 3.5	–	–	–
368.1 K	–	–	80.4 ± 6.3	70.3 ± 5.9	53.7 ± 4	45.6 ± 3.2	–	–	–
373.1 K	–	–	65.3 ± 5.6	57.8 ± 4.7	45.1 ± 3.2	38.8 ± 2.6	–	–	–
378.1 K	–	–	53.5 ± 4.4	47.8 ± 3.7	38.1 ± 2.7	33.2 ± 2.2	30.3 ± 1.7	–	–
383.1 K	–	–	44.2 ± 3.5	39.9 ± 3	32.4 ± 2.2	28.6 ± 1.8	26.3 ± 1.6	–	–
388.1 K	45.3 ± 3.3	40.8 ± 2.6	36.8 ± 2.8	33.5 ± 2.4	27.7 ± 1.8	24.7 ± 1.5	22.9 ± 1.3	19.85 ± 0.99	–
393.1 K	37.4 ± 2.9	34.2 ± 2.5	30.9 ± 2.2	28.3 ± 2	23.9 ± 1.5	21.5 ± 1.3	20 ± 1.1	17.61 ± 0.92	–
398.1 K	31.1 ± 2.3	28.9 ± 2	26.2 ± 1.8	24.2 ± 1.6	20.7 ± 1.3	18.8 ± 1.1	17.59 ± 0.97	15.64 ± 0.8	14.32 ± 0.66
403.1 K	26.2 ± 1.9	24.7 ± 1.6	22.3 ± 1.5	20.8 ± 1.3	18 ± 1	16.46 ± 0.92	15.52 ± 0.83	13.94 ± 0.7	12.86 ± 0.61
408.1 K	22.2 ± 1.5	21.2 ± 1.3	19.2 ± 1.2	18 ± 1.1	15.75 ± 0.89	14.52 ± 0.78	13.76 ± 0.72	12.45 ± 0.61	11.57 ± 0.54
413.1 K	19.1 ± 1.2	18.5 ± 1.1	16.65 ± 0.99	15.64 ± 0.91	13.88 ± 0.75	12.86 ± 0.67	12.25 ± 0.62	11.17 ± 0.53	10.44 ± 0.48
418.1 K	16.53 ± 0.99	16.2 ± 0.89	14.56 ± 0.82	13.73 ± 0.76	12.29 ± 0.64	11.46 ± 0.57	10.97 ± 0.53	10.06 ± 0.47	9.44 ± 0.43
423.1 K	14.47 ± 0.81	14.35 ± 0.74	12.83 ± 0.69	12.15 ± 0.64	10.96 ± 0.54	10.26 ± 0.5	9.85 ± 0.47	9.08 ± 0.41	8.56 ± 0.38
428.1 K	12.78 ± 0.67	12.83 ± 0.62	11.41 ± 0.57	10.82 ± 0.54	9.83 ± 0.47	9.23 ± 0.43	8.89 ± 0.4	8.23 ± 0.36	7.77 ± 0.34
433.1 K	11.41 ± 0.55	–	10.23 ± 0.48	9.72 ± 0.45	8.87 ± 0.4	8.35 ± 0.37	8.06 ± 0.35	7.49 ± 0.32	7.08 ± 0.3
438.1 K	10.3 ± 0.46	10.55 ± 0.44	9.25 ± 0.41	8.8 ± 0.39	8.05 ± 0.35	7.59 ± 0.33	7.34 ± 0.31	6.83 ± 0.29	6.46 ± 0.27
443.1 K	9.39 ± 0.41	–	8.44 ± 0.26	8.03 ± 0.34	7.36 ± 0.32	6.93 ± 0.29	6.71 ± 0.29	6.25 ± 0.27	5.91 ± 0.25

CCCC[n+]1ccn(C)c1.F[B-](F)(F)F + ClC(Cl)Cl
298.15 K, 101 kPa, x2 = 0
Settings	electrical conductivity [S/m]	viscosity [mPa·s]
–	0.194 ± 0.023	116 ± 40

Nc1ccccc1 + CCCC[n+]1ccn(C)c1.O=S(=O)([O-])C(F)(F)F
Settings	viscosity [mPa·s]
323.15 K, 100 kPa, x1 = 1	1.927 ± 0.085

CCCCCCCCn1cc[n+](C)c1.O=S(=O)([N-]S(=O)(=O)C(F)(F)F)C(F)(F)F + CN(C)C=O
viscosity [mPa·s], 101 kPa
Settings	293.15 K	303.15 K	313.15 K	323.15 K	333.15 K	343.15 K	353.15 K	363.15 K
x1 = 0.001926	0.959 ± 0.028	0.858 ± 0.027	0.771 ± 0.028	0.702 ± 0.026	0.641 ± 0.023	0.59 ± 0.024	0.543 ± 0.018	0.502 ± 0.016
x1 = 0.003917	0.982 ± 0.023	0.876 ± 0.02	0.787 ± 0.018	0.715 ± 0.016	0.653 ± 0.015	0.598 ± 0.014	0.552 ± 0.013	0.51 ± 0.012
x1 = 0.007695	1.019 ± 0.023	0.907 ± 0.021	0.818 ± 0.019	0.738 ± 0.017	0.672 ± 0.015	0.617 ± 0.014	0.568 ± 0.013	0.524 ± 0.012
x1 = 0.01197	1.059 ± 0.024	0.942 ± 0.021	0.85 ± 0.019	0.762 ± 0.017	0.694 ± 0.016	0.635 ± 0.015	0.584 ± 0.014	0.539 ± 0.013
x1 = 0.01518	1.096 ± 0.025	0.971 ± 0.022	0.877 ± 0.02	0.784 ± 0.018	0.713 ± 0.016	0.653 ± 0.015	0.598 ± 0.014	0.552 ± 0.013
x1 = 0.0193	1.136 ± 0.026	1.006 ± 0.023	0.909 ± 0.021	0.81 ± 0.019	0.734 ± 0.017	0.669 ± 0.015	0.614 ± 0.014	0.579 ± 0.014

CCCC[n+]1ccn(C)c1.F[B-](F)(F)F + C1COCCO1
298.15 K, 100 kPa
Settings	electrical conductivity [S/m]	viscosity [mPa·s]
x1 = 0.2559	0.403 ± 0.004	6.011 ± 0.079
x1 = 0.3956	0.395 ± 0.004	12.17 ± 0.16
x1 = 0.4988	0.34 ± 0.003	19.88 ± 0.26
x1 = 0.6	0.306 ± 0.003	29.48 ± 0.38
x1 = 0.7021	–	42.97 ± 0.55
x1 = 0.8993	0.252 ± 0.003	79.5 ± 1.4
x1 = 1	0.243 ± 0.002	104.7 ± 2.6

NCC(=O)NCC(=O)O + CCCCCCCCCCCC[N+](C)(C)C.[Br-] + O
100 kPa
Settings	electrical conductivity [S/m]
293.15 K, x1 = 0.0001801, x2 = 0.0003553	0.093 ± 0.01
293.15 K, x1 = 0.0001801, x2 = 0.0003787	0.095 ± 0.01
293.15 K, x1 = 0.0001801, x2 = 0.0004256	0.099 ± 0.011
293.15 K, x1 = 0.0001802, x2 = 2.706e-05	0.0098 ± 0.0013
298.15 K, x1 = 9.009e-05, x2 = 2.704e-05	0.0082 ± 0.0011
298.15 K, x1 = 0.0001801, x2 = 0.0003553	0.096 ± 0.01
298.15 K, x1 = 0.0001801, x2 = 0.0003787	0.097 ± 0.01
298.15 K, x1 = 0.0001801, x2 = 0.0004021	0.099 ± 0.01
303.15 K, x1 = 1.802e-05, x2 = 2.703e-05	0.0078 ± 0.001
303.15 K, x1 = 9.009e-05, x2 = 2.704e-05	0.0097 ± 0.0013
308.15 K, x1 = 1.802e-05, x2 = 2.703e-05	0.0082 ± 0.0011
308.15 K, x1 = 9.005e-05, x2 = 0.0004487	0.098 ± 0.01
313.15 K, x1 = 1.801e-05, x2 = 0.0005368	0.093 ± 0.01
313.15 K, x1 = 1.802e-05, x2 = 2.703e-05	0.0087 ± 0.0013
313.15 K, x1 = 9.006e-05, x2 = 0.0004019	0.098 ± 0.01
313.15 K, x1 = 0.0001801, x2 = 0.0003318	0.099 ± 0.01

CC[n+]1ccn(C)c1.N#C[N-]C#N + CCCCO
100 kPa
Settings	viscosity [mPa·s]
298.15 K, x1 = 0.3006	3.16 ± 0.63
303.15 K, x1 = 0.9012	8.7 ± 1.8
308.15 K, x1 = 0.3006	2.29 ± 0.46
308.15 K, x1 = 0.4008	2.52 ± 0.5
308.15 K, x1 = 0.7012	4.34 ± 0.87
308.15 K, x1 = 0.8016	5.5 ± 1.1
313.15 K, x1 = 0.2007	1.97 ± 0.39
313.15 K, x1 = 0.3006	2.03 ± 0.41
318.15 K, x1 = 0.6014	2.39 ± 0.48
323.15 K, x1 = 0.2007	1.56 ± 0.31
323.15 K, x1 = 0.4008	1.71 ± 0.34
